Measured values reported in ChEMBL document CHEMBL4145470, “Efficient synthesis and first regioselective C-6 direct arylation of imidazo[2,1-c][1,2,4]triazine scaffold and their evaluation in H2O2-induced oxidative stress” (Eur J Med Chem, 2018).
Activity calls are given as the source filed them. No cut-off for these calls is given here.

System: SH-SY5Y
Assay: Cytoprotective activity against H2O2-induced oxidative stress in human SH-SY5Y cells assessed as cell viability at 10 uM preincubated for 24 hrs followed by H2O2 addition and measured after 1 hr by MTT assay (reference value: 37.88 +/- 8.52%)
Type: functional
Conditions: read-out: Activity

Structure (SMILES)	viability at 10 µM [%]
O=[N+]([O-])c1cccc(-c2cn3ccnnc3n2)c1	65.7
COc1ccc(-c2nc3nnccn3c2-c2ccc(OC)cc2)cc1	75.2
FC(F)(F)c1ccc(-c2cn3ccnnc3n2)cc1	60.8
COc1ccc(-c2nc3nnccn3c2-c2ccc([N+](=O)[O-])cc2)cc1	74.9
COc1ccc(-c2nc3nnccn3c2-c2ccncc2)cc1	61.5
COc1cccc(-c2cn3ccnnc3n2)c1	65
COc1ccc(-c2cn3ccnnc3n2)cc1	60.9
COc1ccc(-c2nc3nnccn3c2-c2ccccc2)cc1	79.7
COc1ccc(-c2nc3nnccn3c2-c2cccs2)cc1	68.4

System: SH-SY5Y
Assay: Cytoprotective activity against H2O2-induced oxidative stress in human SH-SY5Y cells assessed as cell viability at 1 uM preincubated for 24 hrs followed by H2O2 addition and measured after 1 hr by MTT assay (reference value: 37.88 +/- 8.52%)
Type: functional
Conditions: read-out: Activity

Structure (SMILES)	viability at 1 µM [%]
O=[N+]([O-])c1cccc(-c2cn3ccnnc3n2)c1	58.9
COc1ccc(-c2nc3nnccn3c2-c2ccc(OC)cc2)cc1	65.5
FC(F)(F)c1ccc(-c2cn3ccnnc3n2)cc1	59.1
COc1ccc(-c2nc3nnccn3c2-c2ccc([N+](=O)[O-])cc2)cc1	56
COc1ccc(-c2nc3nnccn3c2-c2ccncc2)cc1	55.7
COc1cccc(-c2cn3ccnnc3n2)c1	62.8
COc1ccc(-c2cn3ccnnc3n2)cc1	71.3
COc1ccc(-c2nc3nnccn3c2-c2ccccc2)cc1	50.6
COc1ccc(-c2nc3nnccn3c2-c2cccs2)cc1	70.7

System: SH-SY5Y
Assay: Cytoprotective activity against H2O2-induced oxidative stress in human SH-SY5Y cells assessed as cell viability at 0.1 uM preincubated for 24 hrs followed by H2O2 addition and measured after 1 hr by MTT assay (reference value: 37.88 +/- 8.52%)
Type: functional
Conditions: read-out: Activity

Structure (SMILES)	viability at 0.1 µM [%]
O=[N+]([O-])c1cccc(-c2cn3ccnnc3n2)c1	61.5
COc1ccc(-c2nc3nnccn3c2-c2ccc(OC)cc2)cc1	49.6
FC(F)(F)c1ccc(-c2cn3ccnnc3n2)cc1	85.1
COc1ccc(-c2nc3nnccn3c2-c2ccc([N+](=O)[O-])cc2)cc1	81.2
COc1ccc(-c2nc3nnccn3c2-c2ccncc2)cc1	64.1
COc1cccc(-c2cn3ccnnc3n2)c1	73.8
COc1ccc(-c2cn3ccnnc3n2)cc1	73.9
COc1ccc(-c2nc3nnccn3c2-c2ccccc2)cc1	72.9
COc1ccc(-c2nc3nnccn3c2-c2cccs2)cc1	44.6

System: SH-SY5Y
Assay: Cytoprotective activity against H2O2-induced oxidative stress in human SH-SY5Y cells assessed as increase in cell viability preincubated for 24 hrs followed by H2O2 addition and measured after 1 hr by MTT assay
Type: functional, cell-based
Conditions: not given

Structure (SMILES)	Activity
O=[N+]([O-])c1cccc(-c2cn3ccnnc3n2)c1	Dose-dependent effect
COc1ccc(-c2nc3nnccn3c2-c2ccc(OC)cc2)cc1	Dose-dependent effect
FC(F)(F)c1ccc(-c2cn3ccnnc3n2)cc1	Dose-dependent effect
COc1ccc(-c2nc3nnccn3c2-c2ccc([N+](=O)[O-])cc2)cc1	Dose-dependent effect
COc1ccc(-c2nc3nnccn3c2-c2ccncc2)cc1	Dose-dependent effect
COc1cccc(-c2cn3ccnnc3n2)c1	Dose-dependent effect
COc1ccc(-c2cn3ccnnc3n2)cc1	Dose-dependent effect
COc1ccc(-c2nc3nnccn3c2-c2ccccc2)cc1	Dose-dependent effect
COc1ccc(-c2nc3nnccn3c2-c2cccs2)cc1	Dose-dependent effect

System: SH-SY5Y
Assay: Cytotoxicity against human SH-SY5Y cells at 1 to 10 uM after 24 hrs by MTT assay
Type: cell-based
Conditions: not given

Structure (SMILES)	Activity
O=[N+]([O-])c1cccc(-c2cn3ccnnc3n2)c1	Non-Toxic
COc1ccc(-c2nc3nnccn3c2-c2ccc(OC)cc2)cc1	Non-Toxic
FC(F)(F)c1ccc(-c2cn3ccnnc3n2)cc1	Non-Toxic
COc1ccc(-c2nc3nnccn3c2-c2ccc([N+](=O)[O-])cc2)cc1	Non-Toxic
COc1ccc(-c2nc3nnccn3c2-c2ccncc2)cc1	Non-Toxic
COc1cccc(-c2cn3ccnnc3n2)c1	Non-Toxic
COc1ccc(-c2cn3ccnnc3n2)cc1	Non-Toxic
COc1ccc(-c2nc3nnccn3c2-c2ccccc2)cc1	Non-Toxic
COc1ccc(-c2nc3nnccn3c2-c2cccs2)cc1	Non-Toxic

System: SH-SY5Y
Assay: Cytoprotective activity against H2O2-induced apoptosis in human SH-SY5Y cells assessed as decrease in Bax levels at 0.1 uM preincubated for 24 hrs followed by H2O2 addition measured after 1 hr by Western blot analysis
Type: functional, cell-based
Conditions: not given

Structure (SMILES)	Activity
FC(F)(F)c1ccc(-c2cn3ccnnc3n2)cc1	Active
COc1ccc(-c2nc3nnccn3c2-c2ccc([N+](=O)[O-])cc2)cc1	Active
COc1cccc(-c2cn3ccnnc3n2)c1	Active
COc1ccc(-c2cn3ccnnc3n2)cc1	Active
COc1ccc(-c2nc3nnccn3c2-c2ccccc2)cc1	Active

System: SH-SY5Y
Assay: Cytoprotective activity against H2O2-induced apoptosis in human SH-SY5Y cells assessed as decrease in Bax levels at 1 uM preincubated for 24 hrs followed by H2O2 addition measured after 1 hr by Western blot analysis
Type: functional, cell-based
Conditions: not given

Structure (SMILES)	Activity
COc1ccc(-c2nc3nnccn3c2-c2cccs2)cc1	inactive

System: SH-SY5Y
Assay: Cytoprotective activity against H2O2-induced apoptosis in human SH-SY5Y cells assessed as increase in Bcl-2 levels at 0.1 uM preincubated for 24 hrs followed by H2O2 addition measured after 1 hr by Western blot analysis
Type: functional, cell-based
Conditions: not given

Structure (SMILES)	Activity
COc1ccc(-c2nc3nnccn3c2-c2ccccc2)cc1	Active

System: SH-SY5Y
Assay: Cytoprotective activity against H2O2-induced apoptosis in human SH-SY5Y cells assessed as relative Bcl-2 levels at 10 uM preincubated for 24 hrs followed by H2O2 addition measured after 1 hr by Western blot analysis (reference value: 2.084 +/- 0.078)
Type: functional
Conditions: not given

Structure (SMILES)	fold change (FC)
COc1ccc(-c2nc3nnccn3c2-c2ccc(OC)cc2)cc1	3.015

System: SH-SY5Y
Assay: Cytoprotective activity against H2O2-induced apoptosis in human SH-SY5Y cells assessed as relative Bcl-2 levels at 0.1 uM preincubated for 24 hrs followed by H2O2 addition measured after 1 hr by Western blot analysis (reference value: 2.084 +/- 0.078)
Type: functional
Conditions: not given

Structure (SMILES)	fold change (FC)
FC(F)(F)c1ccc(-c2cn3ccnnc3n2)cc1	2.923

System: SH-SY5Y
Assay: Cytoprotective activity against H2O2-induced apoptosis in human SH-SY5Y cells assessed as relative Bcl-2 levels at 1 uM preincubated for 24 hrs followed by H2O2 addition measured after 1 hr by Western blot analysis (reference value: 2.084 +/- 0.078)
Type: functional
Conditions: not given

Structure (SMILES)	fold change (FC)
COc1ccc(-c2nc3nnccn3c2-c2cccs2)cc1	2.955

System: SH-SY5Y
Assay: Cytoprotective activity against H2O2-induced apoptosis in human SH-SY5Y cells assessed as increase in Bcl-2/Bax ratio at 0.1 uM preincubated for 24 hrs followed by H2O2 addition measured after 1 hr by Western blot analysis
Type: functional, cell-based
Conditions: not given

Structure (SMILES)	Activity
FC(F)(F)c1ccc(-c2cn3ccnnc3n2)cc1	Active
COc1ccc(-c2nc3nnccn3c2-c2ccccc2)cc1	Active

System: SH-SY5Y
Assay: Cytoprotective activity against H2O2-induced apoptosis in human SH-SY5Y cells assessed as increase in Bcl-2/Bax ratio at 10 uM preincubated for 24 hrs followed by H2O2 addition measured after 1 hr by Western blot analysis
Type: functional, cell-based
Conditions: not given

Structure (SMILES)	Activity
COc1ccc(-c2nc3nnccn3c2-c2ccc(OC)cc2)cc1	Active

System: SH-SY5Y
Assay: Cytoprotective activity against H2O2-induced apoptosis in human SH-SY5Y cells assessed as increase in Bcl-2/Bax ratio at 1 uM preincubated for 24 hrs followed by H2O2 addition measured after 1 hr by Western blot analysis
Type: functional, cell-based
Conditions: not given

Structure (SMILES)	Activity
COc1ccc(-c2nc3nnccn3c2-c2cccs2)cc1	Active

Molecular target: RAC-alpha serine/threonine-protein kinase (Homo sapiens) (UniProt P31749)
Sequence (P31749 whole entry): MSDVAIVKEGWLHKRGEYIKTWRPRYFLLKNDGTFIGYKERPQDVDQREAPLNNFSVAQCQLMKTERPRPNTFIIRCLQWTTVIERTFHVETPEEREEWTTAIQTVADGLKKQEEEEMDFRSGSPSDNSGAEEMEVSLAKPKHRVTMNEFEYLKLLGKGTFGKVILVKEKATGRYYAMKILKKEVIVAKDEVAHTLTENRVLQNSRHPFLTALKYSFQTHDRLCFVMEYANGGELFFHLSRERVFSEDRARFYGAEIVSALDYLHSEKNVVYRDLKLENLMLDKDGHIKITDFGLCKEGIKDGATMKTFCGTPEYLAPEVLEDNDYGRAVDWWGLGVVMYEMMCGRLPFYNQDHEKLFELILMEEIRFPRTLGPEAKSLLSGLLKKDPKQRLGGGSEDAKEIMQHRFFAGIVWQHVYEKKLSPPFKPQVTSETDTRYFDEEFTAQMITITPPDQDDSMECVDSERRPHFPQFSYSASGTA
Assay: Induction of Akt phosphorylation in H2O2-treated human SH-SY5Y cells at 0.1 uM by ELISA
Type: cell-based
Conditions: not given

Activity	Structure (SMILES)
inactive	COc1ccc(-c2nc3nnccn3c2-c2ccc([N+](=O)[O-])cc2)cc1
Active	COc1ccc(-c2nc3nnccn3c2-c2ccccc2)cc1
Active	COc1ccc(-c2nc3nnccn3c2-c2cccs2)cc1

Molecular target: RAC-alpha serine/threonine-protein kinase (Homo sapiens) (UniProt P31749)
Assay: Induction of Akt phosphorylation in H2O2-treated human SH-SY5Y cells assessed as increase in pBad levels at 0.1 uM by ELISA
Type: cell-based
Conditions: not given

Activity	Structure (SMILES)
inactive	COc1ccc(-c2nc3nnccn3c2-c2ccc([N+](=O)[O-])cc2)cc1
Active	COc1ccc(-c2nc3nnccn3c2-c2ccccc2)cc1
inactive	COc1ccc(-c2nc3nnccn3c2-c2cccs2)cc1

Molecular target: Eukaryotic translation initiation factor 2 subunit 1 (Homo sapiens) (UniProt P05198)
Sequence (P05198 whole entry): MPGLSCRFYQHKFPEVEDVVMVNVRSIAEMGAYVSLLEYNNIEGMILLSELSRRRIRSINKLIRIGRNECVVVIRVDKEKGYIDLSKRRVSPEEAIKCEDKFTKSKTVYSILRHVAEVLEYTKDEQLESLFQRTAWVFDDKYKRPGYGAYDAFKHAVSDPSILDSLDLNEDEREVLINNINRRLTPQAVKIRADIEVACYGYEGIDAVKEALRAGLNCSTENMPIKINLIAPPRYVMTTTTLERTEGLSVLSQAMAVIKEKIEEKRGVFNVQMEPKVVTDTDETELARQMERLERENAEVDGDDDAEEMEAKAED
Assay: Inhibition of H2O2-induced eIF2alpha phosphorylation in human SH-SY5Y cells at 1 uM
Type: cell-based
Conditions: not given

inhibition	Structure (SMILES)
inactive	COc1ccc(-c2nc3nnccn3c2-c2ccc(OC)cc2)cc1
inactive	COc1ccc(-c2nc3nnccn3c2-c2cccs2)cc1

Molecular target: Eukaryotic translation initiation factor 2 subunit 1 (Homo sapiens) (UniProt P05198)
Assay: Inhibition of H2O2-induced eIF2alpha phosphorylation in human SH-SY5Y cells at 0.1 uM
Type: cell-based
Conditions: not given

Structure (SMILES)	inhibition
FC(F)(F)c1ccc(-c2cn3ccnnc3n2)cc1	inactive
COc1cccc(-c2cn3ccnnc3n2)c1	inactive

Second part, the molecule after the results:

inhibition	Structure (SMILES)
inactive	COc1ccc(-c2nc3nnccn3c2-c2ccc([N+](=O)[O-])cc2)cc1
inactive	COc1ccc(-c2cn3ccnnc3n2)cc1
inactive	COc1ccc(-c2nc3nnccn3c2-c2ccccc2)cc1

System: SH-SY5Y
Assay: Cytoprotective activity against H2O2-induced apoptosis in human SH-SY5Y cells assessed as relative cleaved PARP levels at 0.1 uM (reference value: 0.725 +/- 0.06)
Type: functional
Conditions: not given

Structure (SMILES)	fold change (FC)
COc1cccc(-c2cn3ccnnc3n2)c1	0.48
COc1ccc(-c2cn3ccnnc3n2)cc1	0.62

System: SH-SY5Y
Assay: Cytoprotective activity against H2O2-induced apoptosis in human SH-SY5Y cells assessed as relative cleaved caspase-3 levels at 0.1 uM (reference value: 0.875 +/- 0.035)
Type: functional
Conditions: not given

Structure (SMILES)	fold change (FC)
COc1cccc(-c2cn3ccnnc3n2)c1	0.595
COc1ccc(-c2cn3ccnnc3n2)cc1	0.705

System: SH-SY5Y
Assay: Cytoprotective activity against H2O2-induced apoptosis in human SH-SY5Y cells assessed as relative cleaved caspase-7 levels at 0.1 uM (reference value: 1.025 +/- 0.120)
Type: functional
Conditions: not given

Structure (SMILES)	fold change (FC)
COc1cccc(-c2cn3ccnnc3n2)c1	0.815

Molecular target: T1, Mitogen-activated protein kinase; ERK1/ERK2 (Homo sapiens) (UniProt P27361+P28482)
T1 sequence (P27361 whole entry, looked up): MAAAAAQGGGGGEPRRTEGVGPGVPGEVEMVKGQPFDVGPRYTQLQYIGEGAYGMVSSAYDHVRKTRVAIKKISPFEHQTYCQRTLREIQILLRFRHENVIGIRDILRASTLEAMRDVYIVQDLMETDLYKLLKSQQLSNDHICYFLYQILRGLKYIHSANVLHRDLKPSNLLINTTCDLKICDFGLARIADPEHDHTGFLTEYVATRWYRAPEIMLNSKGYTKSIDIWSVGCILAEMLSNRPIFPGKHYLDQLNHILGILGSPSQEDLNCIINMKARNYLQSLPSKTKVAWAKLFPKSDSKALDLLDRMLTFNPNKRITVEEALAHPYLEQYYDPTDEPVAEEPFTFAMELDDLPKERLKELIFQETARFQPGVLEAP
T1 sequence (P28482 whole entry, looked up): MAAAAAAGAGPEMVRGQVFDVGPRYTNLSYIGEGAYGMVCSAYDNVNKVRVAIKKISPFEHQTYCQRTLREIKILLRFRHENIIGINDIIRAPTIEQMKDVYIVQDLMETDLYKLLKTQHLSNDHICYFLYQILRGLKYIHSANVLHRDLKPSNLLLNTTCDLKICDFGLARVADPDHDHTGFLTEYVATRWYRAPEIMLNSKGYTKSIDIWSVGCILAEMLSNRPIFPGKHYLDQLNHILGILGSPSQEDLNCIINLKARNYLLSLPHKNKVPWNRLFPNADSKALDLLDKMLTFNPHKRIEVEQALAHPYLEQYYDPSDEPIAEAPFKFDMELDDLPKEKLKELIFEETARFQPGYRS
Assay: Inhibition of H2O2-induced p44/42 MAPK phosphorylation in human SH-SY5Y cells at 0.1 uM
Type: cell-based
Conditions: not given

inhibition	Structure (SMILES)
Active	COc1cccc(-c2cn3ccnnc3n2)c1
Active	COc1ccc(-c2cn3ccnnc3n2)cc1

Molecular target: T1, Mitogen-activated protein kinase; ERK1/ERK2 (Homo sapiens)
Assay: Inhibition of H2O2-induced p44/42 MAPK phosphorylation in human SH-SY5Y cells at 10 uM
Type: cell-based
Conditions: not given

inhibition	Structure (SMILES)
Active	COc1ccc(-c2nc3nnccn3c2-c2ccc(OC)cc2)cc1

Molecular target: MAP kinase p38 (Homo sapiens) (UniProt O15264+Q15759+Q16539+P53778)
Assay: Inhibition of H2O2-induced p38 MAPK phosphorylation in human SH-SY5Y cells at 0.1 uM
Type: cell-based
Conditions: not given

inhibition	Structure (SMILES)
Active	FC(F)(F)c1ccc(-c2cn3ccnnc3n2)cc1
Active	COc1cccc(-c2cn3ccnnc3n2)c1
